Laboratory results published in patent publication US7329485B2, “Methods for detecting compounds that interfere with protein aggregation utilizing an in vitro fluorescence-based assay” (priority 2005, dated 2008).
“Also recorded” adds a separate entry of the source.

Key:
HBV core protein = HBV core protein (Hepatitis B virus genotype D subtype adw, UniProt P03147); parameters: concentration leading to formation of aberrant particles: unit not given here; conditions: Stray et al., 2005, cited from earlier work
HBV capsid (C150BO) [1] = molecular target: T1, HBV capsid (C150BO) (Hepatitis B virus genotype D subtype adw, UniProt P03147, C107A/C48A/C61A); assay: BODIPY-FL fluorescence quenching assay of C150BO capsid assembly, compared to size-exclusion chromatography; type: biochemical, HBV strain adyw; conditions: for effect on C150BO assembly (fluorescence, size-exclusion chromatography): 3 μM C150BO, 21° C.; for effect on assembly and quenching in mock assembly reactions: mock-assembled, low salt / no NaCl, time not stated; for effect on fluorescence of mock-assembled C150BO dimer (intrinsic quenching control): early times (up to 2 h)
T1 construct: For fluorescent labeling, the mutant C150 (Zlotnick et al., 1997); made in house; host or cells: E. coli
Method: Mutagenesis: For simplicity of chemical labeling, the cysteine residues (C48, C61 and C107) in the assembly domain of HBV strain adyw core protein (amino acids 1-149 (Zlotnick et al., 1996), core protein 149) were mutated to alanine, inserting a unique cysteine residue at the C terminus (C150). Mutagenesis was performed using QuikChange Multi (Stratagene). Mutagenic primers are described in Table III (IDT DNA technologies). Mutations were confirmed by dye terminator dideoxy sequencing (DNA Sequencing Core, Oklahoma Medical Research Foundation). The resulting mutant protein is referred to herein as C150.
Protein expression, purification and dye labeling: Wild-type and mutant truncated HBV capsid protein dimers were expressed and purified from E. coli as described in Zlotnick et al., 1996 and Zlotnick et al., 2002. Protein was quantified by absorbance at 280 nm (ε=60,900 M^−1 cm^−1). DTT levels were maintained at 5 mM throughout purification and storage. Immediately before derivatization, C150 protein was removed from storage buffer by chromatography over a G25 PD10 desalting column (Amersham Biosciences) equilibrated with ice-cold 50 mM HEPES pH 7.5 without DTT. Peak fractions were reacted with BODIPY-FL maleimide (Invitrogen/Molecular Probes) on ice at a final concentration of 4 mM from a 20 mM BODIPY-FL stock in DMSO. Most complete labeling was achieved by overnight reaction, although significant labeling could be achieved by reaction for as little as 10 min. Unreacted dye was removed by separation over a G25 PD10 desalting column equilibrated in ice-cold 50 mM HEPES, pH 7.5. The degree of dye labeling was determined using absorbance at 504 nm (ε504=73,000 M^−1 cm^−1, ε280=1,300 M^−1 cm^−1). The extinction coefficient was calculated by determining the degree of labeling of BODIPY-FL-labeled C150 preps by MALDI-TOF mass spectrometry. Yield of BODIPY-FL-labeled C150 was typically on the order of 1.9 moles of dye per mole of dimer. Labeling of C150 with fluorescein maleimide was compared to BODIPY-FL; BODIPY-FL conjugates gave a much stronger assembly-dependent change in fluorescence than did fluorescein.
Fluorescence and light scattering: Assembly was monitored by fluorescence using a SPEX Fluoromax-2 fluorometer (Horiba Jobin Yvon), using a 0.3-cm path-length cuvette (Hellma) or in black 96-well COSTAR fluorescence microtiter plates (Corning) using a MicroMax adaptor. Assembly reactions were performed at 21° C. Assembly was initiated manually by mixing core protein in 50 mM HEPES, pH 7.5, with buffered NaCl (Sigma) as appropriate. Fluorescence was excited at 504 nm and emission was measured at 509 nm (1-nm band pass for each). For static measurements, all measurements were recorded in triplicate. Qualitatively similar results were obtained using excitation at 495 nm and emission at 512 nm (commonly used for fluorescein fluorescence). Measuring fluorescence of the same reactions in either a cuvette or a 96-well fluorescence microtiter plate gave identical quenching values.
Size-exclusion chromatography: Assembly reactions were examined by SEC on a Superose 6 10/30 column (Amersham Biosciences) mounted on a Shimadzu high-performance liquid chromatography system equipped with an auto injection module (Shimadzu). The column was equilibrated with 50 mM HEPES, pH 7.5, 50 mM NaCl. Recovered protein was assigned either to the void (6.5-7.0 ml), capsid (7.0-8.3 ml), dimer (15-16.5 ml) or intermediate elution (8.3-15 ml).

HBV capsid (C150BO) [2] = molecular target: T1, HBV capsid (C150BO); assay: Example 2 in vitro assembly reactions with labeled capsid polypeptide C150BO, plate reader; type: biochemical; conditions: % assembly at 1 hour (FIG. 7); conditions induced 25% (±5%) assembly in the absence of drugs
Method: The assays were carried out as described in Example 1, except as described herein after. Samples were read in 3 minute intervals for one hour and again at 24 hours using a Tecan filter-based plate reader with a standard fluorescein filter set.
FIG. 7 illustrates a typical experiment comparing different compounds, including some heteroaryldihydropyrimidine (HAP) derivatives. In this experiment, assembly conditions induced 25% (±5%) assembly in the absence of drugs.

T1 sequence (P03147 1-150, looked up, stated change not applied): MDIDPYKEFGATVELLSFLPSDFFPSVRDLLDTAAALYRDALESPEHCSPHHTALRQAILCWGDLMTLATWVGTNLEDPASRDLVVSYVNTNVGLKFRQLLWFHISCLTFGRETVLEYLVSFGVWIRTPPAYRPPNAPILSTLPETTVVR
Sequence of HBV core protein (P03147 1-149): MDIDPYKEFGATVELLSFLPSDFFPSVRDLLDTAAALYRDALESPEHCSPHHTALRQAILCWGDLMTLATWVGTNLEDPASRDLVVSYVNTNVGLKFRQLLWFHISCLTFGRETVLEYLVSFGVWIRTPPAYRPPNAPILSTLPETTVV

Structure (SMILES)	concentration leading to formation of aberrant particles (HBV core protein; >1 HAP-1 molecule per dimer)	effect on HBV core protein assembly in vitro (HBV core protein; broad range of concentrations)	effect on C150BO assembly (fluorescence, size-exclusion chromatography) (HBV capsid (C150BO) [1]; 150 mM NaCl, 24 h (FIG. 6a))	effect on assembly and quenching in mock assembly reactions (HBV capsid (C150BO) [1])	quenching and assembly in mock-assembled controls (HBV capsid (C150BO) [1]; without NaCl, after 24 h)	effect on fluorescence of mock-assembled C150BO dimer (intrinsic quenching control) (HBV capsid (C150BO) [1]; without NaCl)	effect on % assembly of HBV capsid by fluorescence (HBV capsid (C150BO) [2])	effect on C150BO assembly (fluorescence, size-exclusion chromatography) (HBV capsid (C150BO) [1]; 0.5 M NaCl, 24 h (FIG. 6b))
COC(=O)C1=C(C)NC(c2ccccn2)=NC1c1ccc(F)cc1Cl (stereo not shown) [HAP-1]	≥ 10	enhanced the rate and extent of HBV core protein assembly	enhanced assembly, leading to enhanced quenching; also recorded: substantially increased both the rate and the extent of C150BO assembly	able to induce slow C150BO assembly	showed both BODIPY-FL quenching and assembly by SEC	No reduction in fluorescence; also recorded: no effect on fluorescence		
NC(N)=O [urea]				affected neither assembly nor quenching		No reduction in fluorescence	only showed marginal assembly inhibition	inhibited assembly; also recorded: A decrease in assembly by SEC and an increase in fluorescence
